We go through one substance from patent US6113896A, “Pharmaceutical compositions containing ecotin and homologs thereof” (priority 1994, dated 2000).

What all share (assay type): biochemical
Test [1] addresses human FXIIa. Kind of test: Equilibrium inhibition constant with Factor XIIa. The following applies: apparent value, 0.5 mM S2302. On the procedure: (§1) Determination of Equilibrium Inhibition Constants Apparent Ki values (Ki *) for the inhibition of the enzymes tested by ecotin and mutants were measured as follows. All reactions were performed at 25° C. Stock solutions of trypsin were quantitated by active site burst titration with MUGB as previously described (Jameson, G. W. et al., Biochem. J. 131:107-117 [1973]) using a Fluoroskan II plate reader at excitation wavelength of 355 nm and emission wavelength of 460 nm. Data was collected on a Macintosh SE20 using either Delta Soft II Fl v3.31 software (BioMetallics). Active site titrated trypsin was then used to quantitate ecotin active sites using BAPA as the substrate; a stoichiometry of 1:1 was assumed (Chung, C. H. et al., supra). Factor Xa, Factor XIIa, plasma kallikrein, or HLE were then quantitated by active site titration using ecotin as a standard, again assuming 1:1 stoichiometry. In addition, the concentration of HLE was quantitated by methods previously described using a calibrated stock of α1 -proteinase inhibitor to titrate the HLE active sites (Beatty, K. et al., J. Biol. Chem. 255:3931-3934 [1980]); the same HLE active site concentration was determined using both ecotin and α1 -proteinase inhibitor. […]

The target of test [2] is human plasma kallikrein. Kind of test: Equilibrium inhibition constant with plasma kallikrein. The protocol:
as §1

Test [3] addresses HLE (human leukocyte elastase). In words: Equilibrium inhibition constant with HLE. The conditions noted are these: apparent value, 0.08 mM MeOSuc-Ala-Ala-Pro-Val-MCA. The protocol:
as §1

Test [4] relates to normal human plasma. In words: Prothrombin time (PT) clotting assay. The conditions noted are these: initiation by TF. On the procedure: Coagulation assays and Prolongation of Clotting Times Clotting times were performed using the ACL 300 Research Coagulation Analyzer. For the prothrombin time (PT) assays, the incubation time was set at 120 sec and acquisition time at 120 to 600 sec depending on the expected outcome of the assay. Membranes from 293 cells expressing TF (Paborsky, L. R. et al., Biochemistry 28:8072-8077 [1989]) were premixed with CaCl2. The sample (plasma and inhibitor) and reagent (CaCl2 /TF) were automatically mixed together after a 2 min incubation at 37° C. The clotting time was determined by optical assessment. The total incubation time of inhibitor with plasma before addition of CaCl2 /TF was ~5 min. Final concentrations were 78 nM to 7.8 μM ecotin, 3.7 nM TF (0.9 μg/ml by protein content), 22.5 mM CaCl2, and 50% plasma in a total volume of 160 μl.

With “Ecotin: E. coli periplasmic protein having the 142 amino acid residue sequence reported by McGrath et al.; recombinant, P1 Met84”, the Ki in test [1] is 0.124 ± 0.026 nM; in test [2] (plasma kallikrein=1.3 nM), 0.175 ± 0.02 nM; in test [2] (plasma kallikrein=4.3 nM), 0.151 ± 0.02 nM; in test [3] it was 0.05 nM. Also, the “concentration causing 10-fold prolongation of clotting time, PT” value in test [4] was ~2 μM; in test [4] (listed as Wild type ecotin), ~ 2 μM.
